Data set [1] deals with PARP1/2. The following applies: disclosed in WO2013/097225A1; cited from earlier work.
The test system of data set [2] is tumor cell lines with defects of the HR pathway. The data set is described as follows: in vitro activity against tumor cell lines with defects of the HR pathway. In kind it is cell-based. An excerpt:
(§1) Inhibition of PARylation in the tumor tissues correlated well with tumor drug concentrations of Compound B.

Data set [3] has as its system PARylation. The data set is described as follows: PK/PD study, PARylation in MDA-MB-436 breast cancer xenografts. It is filed as in vivo, mice. The following applies: oral administration.
From the text: as §1

Data set [4] can be described thus: brain penetrance. The following applies: in vivo.
Data set [5] has as its system H209-T small cell lung cancer xenografts. The data set is described as follows: H209-T intracranial tumor model. It is filed as in vivo, nude mice. The following applies: single agent, 2.73 mg/kg BID. The text has this: H209-T is a TMZ-resistant cell line generated by treating H209-xenografted tumors with multiple cycles of TMZ in vivo.
Data set [6] relates to H209 small cell lung cancer xenograft. The following applies: single agent, 2.73 mg/kg BID x 21 days.
For data set [7], the system named is newly diagnosed or recurrent/refractory glioblastoma (GBM). As to the kind of experiment: dose-escalation/expansion study of Compound B with RT and/or TMZ in GBM (Example 5). In kind it is in vivo, human. To be noted: across study arms, 15 patients. How it is done: This ongoing dose-escalation/expansion study was designed to determine the safety/tolerability and antitumor effects of Compound B (60 mg PO BID) in combination with RT and/or TMZ. The dose-escalation component consists of 3 arms:
(Arm A) Compound B (60 mg BID) at increasing exposures of 2, 4, or 6 weeks in combination with RT for 6 to 7 weeks, in newly diagnosed patients with GBM with unmethylated MGMT promoter (‘unmethylated GBM’)), and after RT is completed, subjects will receive no further study treatment;
(Arm B) Depending on the safety of the Arm A combination, Compound B in combination with RT for 6 to 7 weeks and increasing TMZ doses, in newly diagnosed patients with unmethylated GBM, and after RT is completed, subjects will receive no further study treatment;
(Arm C) Compound B in combination with increasing dose of TMZ administered on Days 1 to 21 of each 28-day cycle, in patients with recurrent/refractory methylated or unmethylated GBM.
In Arm A, Arm B and Arm C: Compound B was administered at the doses of 60 mg BID (PO); Radiation therapy (RT) was administered QD×5 days/week for 6 to 7 weeks with 1.8 to 2 Gy/fraction for a total dose of up to 60 Gy; flat-dosing was used for TMZ, and the first dose level of 40 mg QD corresponds to 23 mg/m^2 assuming an average body surface area of 1.73 m^2. […]

The test system of data set [8] is locally advanced or metastatic solid tumors. It is filed as in vivo. How it is done: This dose-escalation/expansion study is enrolling pts using a modified 3+3 design to establish the safety and MTD of Compound B plus TMZ. During dose escalation, pts receive Compound B plus escalating doses of TMZ QD on Days 1-7 (Arm A) or continuously (Arm B) of each 28-day cycle. In Arm A and Arm B: Compound B was administered at the doses of 60 mg PO BID; TMZ was administered at 20 mg, 40 mg, 80 mg, 120 mg QD corresponds to 12 mg/m^2, 23 mg/m^2, 46 mg/m^2and 69 mg/m^2assuming an average body surface area of 1.73 m^2, respectively will be administered PO QD.
The primary endpoint is safety/tolerability, including estimation of MTD and RP2D. Key secondary endpoints are PK profiles of TMZ and Compound B and antitumor activity (RECIST v1.1) of combination treatment; biomarker (eg, gBRCA) assessment is exploratory.

Data set [9] has as its system MDA-MB-436 breast cancer. The data set is described as follows: BRCA1-mutant mouse xenograft model (MDA-MB-436 breast cancer). In kind it is in vivo.
From the text: as §1

For data set [10], the system named is non-BRCA1/2-mutated cancers. To be noted: cited from earlier work.

`C[C@]12CCCN1CC1=NNC(=O)c3cc(F)cc4[nH]c2c1c34` [Compound A, (R)-2-fluoro-10a-methyl-7,8,9,10,10a,11-hexahydro-5,6,7a,11-tetraazacyclohepta[def]cyclopenta[a]fluoren-4(5H)-one]: in [1], the PARP1/2 inhibitory activities result was “highly selective and potent”.
On to `C[C@]12CCCN1CC1=NNC(=O)c3cc(F)cc4[nH]c2c1c34` [Compound B, (R)-2-fluoro-10a-methyl-7,8,9,10,10a,11-hexahydro-5,6,7a,11-tetraazacyclohepta[def]cyclopenta[a]fluoren-4(5H)-one sesqui-hydrate], for which the “in vitro activity as a single agent” value in [2] was “excellent in vitro activity”. For the same compound, the “inhibition of PARylation in xenografts” value in data set [3] was “time- and dose-dependent inhibition of PARylation”. For the same compound, the brain penetrance entry in data set [4] is given as “significant brain penetrance”. Also, the “effect on tumor growth” value in data set [5] is on record as “no significant effect on tumor growth”. In addition, the “effect on tumor growth” value in data set [6] is recorded as “no significant effect on tumor growth”. In data set [7], the “Compound B-related AE fatigue (n patients)” value amounted to 5 and the “Compound B-related AE nausea (n patients)” value is given as 6. For the same compound, the “most common drug-related AE: nausea (n pts)” value in [8] (16 pts, Compound B 60 mg BID plus TMZ 20-120 mg QD) was found to be 6. For the same compound, in data set [8] (in combination), the plasma exposure entry is “consistent with single-agent trials”. Also, the “potency relative to olaparib” value in data set [9] (more potent than olaparib) is given as 16 fold. Moreover, the anti-tumor activity entry in [9] (single agent) was “strong anti-tumor activity”.
For `Cn1nnc2c(C(N)=O)ncn2c1=O` [TMZ, temozolomide], the “MTD, TMZ” value in data set [10] (with 1 mg talazoparib) is on record as 37 mg/m^2. The “most common drug-related AE: thrombocytopenia (n pts)” value in [8] (human, in vivo) is recorded as 5.
Turning to `Cn1ncnc1[C@H]1c2n[nH]c(=O)c3cc(F)cc(c23)N[C@@H]1c1ccc(F)cc1` [talazoparib], the “MTD, talazoparib” value in [10] (plus 37 mg/m^2 of TMZ) is 1 mg.
